According to patent US6355799B1, “Substituted benzene compounds, process for their preparation, and herbicidal and defoliant compositions containing them” (ISK Americas Incorporated, priority 1997, dated 2002):

Key:
Format in all cases: in vivo
[1] = test system: redroot pigweed (Amaranthus retroflexus, AMARE); test: Pre-emerge test, greenhouse herbicide activity screening; conditions: for phytotoxicity rating AMARE: pre-emerge, 14 days after application, scale 0-100; for Pre-emerge Herbicidal Activity, phytotoxicity rating (0-100), AMARE: rated 14 days after application, 0 = no damage, 100 = complete death
Outline: (§1)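 Visual ratings on a 0-100 scale (0 no damage, 100 all plants dead) were taken at 14 days after treatment. Rates of 15-1000 g ai/ha in acetone, 187 l/ha, were sprayed onto soil one day after planting (pre-emerge) or onto 2-3 leaf plants with 0.25% v/v surfactant (post-emerge).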

[2] = test system: barnyardgrass (Echinochloa crus-galli, ECHCG); test: as above; conditions: for phytotoxicity rating ECHCG: pre-emerge, 14 days after application, scale 0-100; for Pre-emerge Herbicidal Activity, phytotoxicity rating (0-100), ECHCG: rated 14 days after application, 0 = no damage, 100 = complete death
Outline: (§2)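 Rating: 0–100 visual injury, 14 DAA. Application: acetone, 187 l/ha, 15–1000 g ai/ha, flat-fan track sprayer with nozzle 40–45 cm above soil or canopy. Post-emerge runs used 0.25% v/v surfactant on 2–3 leaf plants.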

[3] = test system: green foxtail (Setaria viridis, SETVI); test: as above; conditions: for phytotoxicity rating SETVI: pre-emerge, 14 days after application, scale 0-100; for Pre-emerge Herbicidal Activity, phytotoxicity rating (0-100), SETVI: rated 14 days after application, 0 = no damage, 100 = complete death
Outline: as §2

[4] = test system: ivyleaf morningglory (Ipomoea hederacea, IPOHE); test: as above; conditions: for phytotoxicity rating IPOHE: pre-emerge, 14 days after application, scale 0-100; for Pre-emerge Herbicidal Activity, phytotoxicity rating (0-100), IPOHE: rated 14 days after application, 0 = no damage, 100 = complete death
Outline: as §2

[5] = test system: johnsongrass (Sorghum halepense, SORHA); test: as above; conditions: for phytotoxicity rating SORHA: pre-emerge, 14 days after application, scale 0-100; for Pre-emerge Herbicidal Activity, phytotoxicity rating (0-100), SORHA: rated 14 days after application, 0 = no damage, 100 = complete death
Outline: as §2

[6] = test system: lambsquarters (Chenopodium album, CHEAL); test: as above; conditions: for phytotoxicity rating CHEAL: pre-emerge, 14 days after application, scale 0-100; for Pre-emerge Herbicidal Activity, phytotoxicity rating (0-100), CHEAL: rated 14 days after application, 0 = no damage, 100 = complete death
Outline: as §2

[7] = test system: large crabgrass (Digitaria sanguinalis, DIGSA); test: as above; conditions: for phytotoxicity rating DIGSA: pre-emerge, 14 days after application, scale 0-100; for Pre-emerge Herbicidal Activity, phytotoxicity rating (0-100), DIGSA: rated 14 days after application, 0 = no damage, 100 = complete death
Outline: as §2

[8] = test system: sicklepod (Cassia obtusifolia, CASOB); test: as above; conditions: for phytotoxicity rating CASOB: pre-emerge, 14 days after application, scale 0-100; for Pre-emerge Herbicidal Activity, phytotoxicity rating (0-100), CASOB: rated 14 days after application, 0 = no damage, 100 = complete death
Outline: as §2

[9] = test system: velvetleaf (Abutilon theophrasti, ABUTH); test: as above; conditions: for phytotoxicity rating ABUTH: pre-emerge, 14 days after application, scale 0-100; for Pre-emerge Herbicidal Activity, phytotoxicity rating (0-100), ABUTH: rated 14 days after application, 0 = no damage, 100 = complete death
Outline: as §2

[10] = test system: field corn (Zea mays L., var. Dekalb 535, CORN); test: Pre-emerge test, crop safety; conditions: for phytotoxicity rating CORN (crop damage): pre-emerge, 14 days after application, scale 0-100; for Pre-emerge phytotoxicity rating (0-100), crop damage, CORN: rated 14 days after application, 0 = no damage, 100 = complete death
Outline: as §1

[11] = test system: upland rice (Oryza sp., var. Tebonnet, RICE); test: Pre-emerge test, crop safety; conditions: for phytotoxicity rating RICE (crop damage): pre-emerge, 14 days after application, scale 0-100; for Pre-emerge phytotoxicity rating (0-100), crop damage, RICE: rated 14 days after application, 0 = no damage, 100 = complete death
Outline: as §1

[12] = test system: barnyardgrass (Echinochloa crus-galli, ECHCG); test: Post-emerge test, greenhouse herbicide activity screening; conditions: post-emerge, 14 days after application, rating scale 0-100
Outline: (§3)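 Each test used a mechanized track sprayer delivering 187 l/ha of acetone solution at 15–1000 g ai/ha. Post-emerge foliage at 2–3 leaves was treated with added 0.25% v/v non-ionic surfactant and bottom-watered only. Injury was assessed on day 14, where 100 means total kill.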

[13] = test system: green foxtail (Setaria viridis, SETVI); test: as above; conditions: post-emerge, 14 days after application, rating scale 0-100
Outline: as §3

[14] = test system: ivyleaf morningglory (Ipomoea hederacea, IPOHE); test: as above; conditions: post-emerge, 14 days after application, rating scale 0-100
Outline: as §3

[15] = test system: johnsongrass (Sorghum halepense, SORHA); test: as above; conditions: post-emerge, 14 days after application, rating scale 0-100
Outline: as §3

[16] = test system: lambsquarters (Chenopodium album, CHEAL); test: as above; conditions: post-emerge, 14 days after application, rating scale 0-100
Outline: as §3

[17] = test system: large crabgrass (Digitaria sanguinalis, DIGSA); test: as above; conditions: post-emerge, 14 days after application, rating scale 0-100
Outline: as §3

[18] = test system: redroot pigweed (Amaranthus retroflexus, AMARE); test: as above; conditions: post-emerge, 14 days after application, rating scale 0-100
Outline: as §3

[19] = test system: sicklepod (Cassia obtusifolia, CASOB); test: as above; conditions: post-emerge, 14 days after application, rating scale 0-100
Outline: as §3

[20] = test system: velvetleaf (Abutilon theophrasti, ABUTH); test: as above; conditions: post-emerge, 14 days after application, rating scale 0-100
Outline: as §3

[21] = test system: field corn (Zea mays L., var. Dekalb 535, CORN); test: Post-emerge test, crop safety; conditions: post-emerge, 14 days after application, rating scale 0-100
Outline: (§4)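 Plants grown in 10 cm pots of sandy loam mix received acetone-dissolved compounds through a moving flat-fan nozzle. Doses ranged from 15 to 1000 g ai/ha. Pre-emerge pots were seeded one day earlier, post-emerge pots 8–21 days earlier. Fourteen days on, each pot was graded 0–100 for damage.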

[22] = test system: upland rice (Oryza sp., var. Tebonnet, RICE); test: Post-emerge test, crop safety; conditions: post-emerge, 14 days after application, rating scale 0-100
Outline: as §4

COc1c(Br)cc(F)c(-n2c(=O)cc(C(F)(F)F)n(C)c2=O)c1NC(=O)C=Cc1ccccc1 [2-175]
phytotoxicity rating AMARE ([1]; 63 g ai/ha): 100
phytotoxicity rating AMARE ([1]; 250 g ai/ha): 100
phytotoxicity rating ECHCG ([2]; 63 g ai/ha): 0
phytotoxicity rating ECHCG ([2]; 250 g ai/ha): 40
phytotoxicity rating SETVI ([3]; 63 g ai/ha): 0
phytotoxicity rating SETVI ([3]; 250 g ai/ha): 60
phytotoxicity rating IPOHE ([4]; 63 g ai/ha): 70
phytotoxicity rating IPOHE ([4]; 250 g ai/ha): 50
phytotoxicity rating SORHA ([5]; 63 g ai/ha): 0
phytotoxicity rating SORHA ([5]; 250 g ai/ha): 30
phytotoxicity rating CHEAL ([6]; 63 g ai/ha): 100
phytotoxicity rating CHEAL ([6]; 250 g ai/ha): 100
phytotoxicity rating DIGSA ([7]; 63 g ai/ha): 0
phytotoxicity rating DIGSA ([7]; 250 g ai/ha): 60
phytotoxicity rating CASOB ([8]; 63 g ai/ha): 30
phytotoxicity rating CASOB ([8]; 250 g ai/ha): 30
phytotoxicity rating ABUTH ([9]; 63 g ai/ha): 100
phytotoxicity rating ABUTH ([9]; 250 g ai/ha): 100
phytotoxicity rating CORN (crop damage) ([10]; 63 g ai/ha): 0
phytotoxicity rating CORN (crop damage) ([10]; 250 g ai/ha): 0
phytotoxicity rating RICE (crop damage) ([11]; 63 g ai/ha): 20
phytotoxicity rating RICE (crop damage) ([11]; 250 g ai/ha): 40
ECHCG phytotoxicity rating ([12]; 63 g ai/ha): 0
ECHCG phytotoxicity rating ([12]; 250 g ai/ha): 20
SETVI phytotoxicity rating ([13]; 63 g ai/ha): 0
SETVI phytotoxicity rating ([13]; 250 g ai/ha): 20
IPOHE phytotoxicity rating ([14]; 63 g ai/ha): 100
IPOHE phytotoxicity rating ([14]; 250 g ai/ha): 100
SORHA phytotoxicity rating ([15]; 63 g ai/ha): 0
SORHA phytotoxicity rating ([15]; 250 g ai/ha): 10
CHEAL phytotoxicity rating ([16]; 63 g ai/ha): 100
CHEAL phytotoxicity rating ([16]; 250 g ai/ha): 100
DIGSA phytotoxicity rating ([17]; 63 g ai/ha): 0
DIGSA phytotoxicity rating ([17]; 250 g ai/ha): 10
AMARE phytotoxicity rating ([18]; 63 g ai/ha): 100
AMARE phytotoxicity rating ([18]; 250 g ai/ha): 100
CASOB phytotoxicity rating ([19]; 63 g ai/ha): 100
CASOB phytotoxicity rating ([19]; 250 g ai/ha): 100
ABUTH phytotoxicity rating ([20]; 63 g ai/ha): 100
ABUTH phytotoxicity rating ([20]; 250 g ai/ha): 100
CORN phytotoxicity rating (crop damage) ([21]; 63 g ai/ha): 10
CORN phytotoxicity rating (crop damage) ([21]; 250 g ai/ha): 10
RICE phytotoxicity rating (crop damage) ([22]; 63 g ai/ha): 50
RICE phytotoxicity rating (crop damage) ([22]; 250 g ai/ha): 80

COc1c(Cl)cc(F)c(-n2c(=S)cc(C(F)(F)F)n(C)c2=O)c1NC(=S)c1ccc(F)cc1F [2-46]
Pre-emerge Herbicidal Activity, phytotoxicity rating (0-100), AMARE ([1]; 63 g ai/ha): 100
Pre-emerge Herbicidal Activity, phytotoxicity rating (0-100), AMARE ([1]; 250 g ai/ha): 100
Pre-emerge Herbicidal Activity, phytotoxicity rating (0-100), ECHCG ([2]; 63 g ai/ha): 0
Pre-emerge Herbicidal Activity, phytotoxicity rating (0-100), ECHCG ([2]; 250 g ai/ha): 50
Pre-emerge Herbicidal Activity, phytotoxicity rating (0-100), SETVI ([3]; 63 g ai/ha): 90
Pre-emerge Herbicidal Activity, phytotoxicity rating (0-100), SETVI ([3]; 250 g ai/ha): 100
Pre-emerge Herbicidal Activity, phytotoxicity rating (0-100), IPOHE ([4]; 63 g ai/ha): 0
Pre-emerge Herbicidal Activity, phytotoxicity rating (0-100), IPOHE ([4]; 250 g ai/ha): 60
Pre-emerge Herbicidal Activity, phytotoxicity rating (0-100), SORHA ([5]; 63 g ai/ha): 30
Pre-emerge Herbicidal Activity, phytotoxicity rating (0-100), SORHA ([5]; 250 g ai/ha): 90
Pre-emerge Herbicidal Activity, phytotoxicity rating (0-100), CHEAL ([6]; 63 g ai/ha): 100
Pre-emerge Herbicidal Activity, phytotoxicity rating (0-100), CHEAL ([6]; 250 g ai/ha): 100
Pre-emerge Herbicidal Activity, phytotoxicity rating (0-100), DIGSA ([7]; 63 g ai/ha): 30
Pre-emerge Herbicidal Activity, phytotoxicity rating (0-100), DIGSA ([7]; 250 g ai/ha): 70
Pre-emerge Herbicidal Activity, phytotoxicity rating (0-100), CASOB ([8]; 63 g ai/ha): 30
Pre-emerge Herbicidal Activity, phytotoxicity rating (0-100), CASOB ([8]; 250 g ai/ha): 100
Pre-emerge Herbicidal Activity, phytotoxicity rating (0-100), ABUTH ([9]; 63 g ai/ha): 50
Pre-emerge Herbicidal Activity, phytotoxicity rating (0-100), ABUTH ([9]; 250 g ai/ha): 100
Pre-emerge phytotoxicity rating (0-100), crop damage, CORN ([10]; 63 g ai/ha): 0
Pre-emerge phytotoxicity rating (0-100), crop damage, CORN ([10]; 250 g ai/ha): 90
Pre-emerge phytotoxicity rating (0-100), crop damage, RICE ([11]; 63 g ai/ha): 20
Pre-emerge phytotoxicity rating (0-100), crop damage, RICE ([11]; 250 g ai/ha): 70
phytotoxicity rating ECHCG ([12]; 63 g ai/ha): 0
phytotoxicity rating ECHCG ([12]; 250 g ai/ha): 10
phytotoxicity rating SETVI ([13]; 63 g ai/ha): 0
phytotoxicity rating SETVI ([13]; 250 g ai/ha): 30
phytotoxicity rating IPOHE ([14]; 63 g ai/ha): 0
phytotoxicity rating IPOHE ([14]; 250 g ai/ha): 20
phytotoxicity rating SORHA ([15]; 63 g ai/ha): 0
phytotoxicity rating SORHA ([15]; 250 g ai/ha): 0
phytotoxicity rating CHEAL ([16]; 63 g ai/ha): 10
phytotoxicity rating DIGSA ([17]; 63 g ai/ha): 0
phytotoxicity rating DIGSA ([17]; 250 g ai/ha): 0
phytotoxicity rating AMARE ([18]; 63 g ai/ha): 30
phytotoxicity rating AMARE ([18]; 250 g ai/ha): 70
phytotoxicity rating CASOB ([19]; 63 g ai/ha): 0
phytotoxicity rating CASOB ([19]; 250 g ai/ha): 0
phytotoxicity rating ABUTH ([20]; 63 g ai/ha): 50
phytotoxicity rating ABUTH ([20]; 250 g ai/ha): 100
phytotoxicity rating CORN ([21]; 63 g ai/ha): 0
phytotoxicity rating CORN ([21]; 250 g ai/ha): 20
phytotoxicity rating RICE ([22]; 63 g ai/ha): 10
phytotoxicity rating RICE ([22]; 250 g ai/ha): 30
